The record followed here is ChEMBL document CHEMBL4152265, “Phthalocyanine-sulfonamide conjugates: Synthesis and photodynamic inactivation of Gram-negative and Gram-positive bacteria” (Eur J Med Chem, 2018).

A short description of series [1]: Solubility of PVP encapsulated compound in PBS at 2.5 to 25 umol/L by UV-Vis spectroscopic method. The format is physicochemical. Particulars: buffer.
Series [2] relates to Escherichia coli. Description: Effect on viability of recombinant bioluminescence Escherichia coli harboring pHK724/pHK555 using PVP encapsulated compound at 20 uM after 30 mins in absence of light by luminometry. The format is organism-based. Particulars: in vivo, 0.5 h.
In series [3] the test system is Staphylococcus aureus. Kind of series: Effect on viability of Staphylococcus aureus ATCC 29213 using PVP encapsulated compound at 20 uM after 30 mins in absence of light by […]. The format is organism-based. Particulars: in vivo, 0.5 h.
Series [4] can be described thus: Induction of singlet oxygen generation in PBS/DMSO assessed as DPBF decay at 0.5 mmol/L measured after 7 mins of LED irradiation at 9 mW/cm2. The format is functional.
Series [5] relates to Escherichia coli. Description: Antibacterial activity against recombinant bioluminescence Escherichia coli harboring pHK724/pHK555 at 20 uM using PVP encapsulated compound preincubated in dark for 30 mins followed by red light irradiation at 1620 J/cm2 for 180 mins by luminometry. The format is functional, organism-based.
Series [6] concerns Staphylococcus aureus. Kind of series: Antibacterial activity against Staphylococcus aureus ATCC 29213 using PVP encapsulated compound at 20 uM preincubated in dark for 30 mins followed by red light irradiation at 270 J/cm2 for 30 mins by […] relative to control. The format is functional, organism-based.
Series [7] concerns Staphylococcus aureus. Description: Effect on viability of Staphylococcus aureus ATCC 29213 at 20 uM after 30 mins in absence of light by […]. The format is organism-based. The settings on record: in vivo, 0.5 h.
In series [8] the test system is Escherichia coli. Description: Effect on viability of recombinant bioluminescence Escherichia coli harboring pHK724/pHK555 at 20 uM after 30 mins in absence of light by luminometry. The format is organism-based. Particulars: in vivo, 0.5 h.
Series [9] in a line: Solubility of compound in DMSO at 2.5 to 25 umol/L by UV-Vis spectroscopic method. The format is physicochemical.
Series [10] deals with Escherichia coli. Description: Antibacterial activity against recombinant bioluminescence Escherichia coli harboring pHK724/pHK555 at 20 uM preincubated in dark for 30 mins followed by red light irradiation at 1620 J/cm2 for 180 mins by luminometry. The format is functional, organism-based.
The nature of series [11]: Photostability in PBS at 2 ml measured after 30 mins of red light irradiation at 150 mW/cm2 by UV-Vis spectroscopic method. The format is physicochemical. The settings on record: buffer, 0.5 h.
The nature of series [12]: Induction of singlet oxygen generation in PBS assessed as DPBF decay using PVP encapsulated compound at 0.5 mmol/L measured after 7 mins of LED irradiation at 9 mW/cm2. The format is functional.
Series [13] in a line: Induction of singlet oxygen generation in DMF assessed as DPBF decay at 0.5 mmol/L measured after 7 mins of LED irradiation at 9 mW/cm2. The format is functional.
In series [14] the test system is Staphylococcus aureus. Description: Antibacterial activity against Staphylococcus aureus ATCC 29213 at 20 uM preincubated in dark for 30 mins followed by red light irradiation at 270 J/cm2 for 30 mins by […] relative to control. The format is functional.
A short description of series [15]: Solubility of compound in PBS/10% DMSO at 2.5 to 25 umol/L by UV-Vis spectroscopic method. The format is physicochemical. The settings on record: buffer.

The structures appear in SMILES notation. The source made the active and inactive calls. The rule behind the calls is not given here.

Take `CCN(CC)S(=O)(=O)c1ccc(Oc2cc3c(cc2Oc2ccc(S(=O)(=O)N(CC)CC)cc2)-c2nc-3nc3[nH]c(nc4nc(nc5[nH]c(n2)c2cc(Oc6ccc(S(=O)(=O)N(CC)CC)cc6)c(Oc6ccc(S(=O)(=O)N(CC)CC)cc6)cc52)-c2cc(Oc5ccc(S(=O)(=O)N(CC)CC)cc5)c(Oc5ccc(S(=O)(=O)N(CC)CC)cc5)cc2-4)c2cc(Oc4ccc(S(=O)(=O)N(CC)CC)cc4)c(Oc4ccc(S(=O)(=O)N(CC)CC)cc4)cc32)cc1`: the solubility result in [1] is reported as “Soluble”; in [9] it was “Soluble”; in series [15] it was “Insoluble”. Moreover, the Activity result with Escherichia coli [2] was “Non-Toxic”; with Staphylococcus aureus [3], “Non-Toxic”; in [4], 1%; with Staphylococcus aureus [7] it was “Non-Toxic”; with Escherichia coli [8], “Non-Toxic”; in [12], 68%. The Activity is 93% in [13] and more than 3 deltalog10CFU/ml with Staphylococcus aureus [14]. The outcome in the series on Escherichia coli [5] and with Escherichia coli [10] was inactive. Moreover, the result in the series on Staphylococcus aureus [6] was Active. The Stability result in [11] is listed as “Stable”.
Take `CC(C)NS(=O)(=O)c1ccc(Oc2cc3c(cc2Oc2ccc(S(=O)(=O)NC(C)C)cc2)-c2nc-3nc3[nH]c(nc4nc(nc5[nH]c(n2)c2cc(Oc6ccc(S(=O)(=O)NC(C)C)cc6)c(Oc6ccc(S(=O)(=O)NC(C)C)cc6)cc52)-c2cc(Oc5ccc(S(=O)(=O)NC(C)C)cc5)c(Oc5ccc(S(=O)(=O)NC(C)C)cc5)cc2-4)c2cc(Oc4ccc(S(=O)(=O)NC(C)C)cc4)c(Oc4ccc(S(=O)(=O)NC(C)C)cc4)cc32)cc1`: the solubility entry in [1] is “Soluble”; in series [9] it was “Soluble”; in series [15], “Insoluble”. Also, the Activity entry was “Non-Toxic” with Escherichia coli [2]; “Non-Toxic” in the series on Staphylococcus aureus [3]; 4% in [4]; “Non-Toxic” with Staphylococcus aureus [7]; “Non-Toxic” in the series with Escherichia coli [8]; 74% in [12]. In series [13], the Activity was determined as 96%. In the series with Escherichia coli [5], the result was inactive. Further, the result in the series on Staphylococcus aureus [6] and in the series with Escherichia coli [10] was Active. For the same compound, the Stability entry in [11] was “Stable”.
Turning to `COc1ccc(NS(=O)(=O)c2ccc(Oc3cc4c(cc3Oc3ccc(S(=O)(=O)Nc5ccc(OC)cc5)cc3)-c3nc-4nc4[nH]c(nc5nc(nc6[nH]c(n3)c3cc(Oc7ccc(S(=O)(=O)Nc8ccc(OC)cc8)cc7)c(Oc7ccc(S(=O)(=O)Nc8ccc(OC)cc8)cc7)cc63)-c3cc(Oc6ccc(S(=O)(=O)Nc7ccc(OC)cc7)cc6)c(Oc6ccc(S(=O)(=O)Nc7ccc(OC)cc7)cc6)cc3-5)c3cc(Oc5ccc(S(=O)(=O)Nc6ccc(OC)cc6)cc5)c(Oc5ccc(S(=O)(=O)Nc6ccc(OC)cc6)cc5)cc43)cc2)cc1`, the solubility entry in [1] is given as “Soluble”; in series [9], “Soluble”; in [15], “Insoluble”. In addition, the Activity result in the series with Escherichia coli [2] was “Non-Toxic”; in the series with Staphylococcus aureus [3] it was “Non-Toxic”; in series [4], 4%; in the series on Staphylococcus aureus [7] it was “Non-Toxic”; in the series with Escherichia coli [8], “Non-Toxic”; in series [12] it was 59%. In addition, the Activity in series [13] is 92%; with Staphylococcus aureus [14], more than 3 deltalog10CFU/ml. For the same compound, the result in the series on Escherichia coli [5] was inactive. For the same compound, the outcome with Staphylococcus aureus [6] and with Escherichia coli [10] was Active. In addition, the Stability result in series [11] is given as “Stable”.
